Reference: doi:10.1101/2021.04.08.439011v1 (biorxiv, 2021)
Read-outs that look alike come from different tables or passages of the source.

Tests used:
AXL = AXL (Homo sapiens, UniProt P30530); settings: 1 µM; binder
TIE1 = TIE1 (Homo sapiens, UniProt P35590); settings: 1 µM; binder
TSSK3 = TSSK3 (Homo sapiens, UniProt Q96PN8); settings: 1 µM; binder
CSNK1G2 = CSNK1G2 (Homo sapiens, UniProt P78368); settings: 1 µM; binder
NDR1 = NDR1 (Homo sapiens, UniProt Q15208); settings: 1 µM; binder
p38-beta = p38-beta (Homo sapiens, UniProt Q15759); settings: 1 µM; binder
RPS6KA2 = RPS6KA2 (Homo sapiens, UniProt Q15349); settings: binder
Chain of RPS6KA2 (Q15349 whole entry): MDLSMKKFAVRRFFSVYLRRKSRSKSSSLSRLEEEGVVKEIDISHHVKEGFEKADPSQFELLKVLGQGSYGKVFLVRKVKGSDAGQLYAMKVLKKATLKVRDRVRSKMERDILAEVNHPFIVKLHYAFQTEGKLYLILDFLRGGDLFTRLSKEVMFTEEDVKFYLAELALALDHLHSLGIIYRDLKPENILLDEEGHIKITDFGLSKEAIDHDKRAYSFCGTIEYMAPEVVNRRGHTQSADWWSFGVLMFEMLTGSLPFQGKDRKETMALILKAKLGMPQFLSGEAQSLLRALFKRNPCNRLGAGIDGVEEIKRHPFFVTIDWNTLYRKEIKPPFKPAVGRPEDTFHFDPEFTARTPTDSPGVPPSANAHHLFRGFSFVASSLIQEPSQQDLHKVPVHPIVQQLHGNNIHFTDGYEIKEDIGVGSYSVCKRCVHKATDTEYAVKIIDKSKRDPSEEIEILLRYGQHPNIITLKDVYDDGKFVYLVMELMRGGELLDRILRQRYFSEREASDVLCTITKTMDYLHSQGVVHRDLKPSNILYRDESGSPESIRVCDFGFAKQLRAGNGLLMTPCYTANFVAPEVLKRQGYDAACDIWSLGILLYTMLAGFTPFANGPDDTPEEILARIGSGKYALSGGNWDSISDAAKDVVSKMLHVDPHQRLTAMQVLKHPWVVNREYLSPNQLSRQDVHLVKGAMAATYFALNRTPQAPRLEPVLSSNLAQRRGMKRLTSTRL

ULK1 = ULK1 (Homo sapiens, UniProt O75385); settings: 1 µM; binder
SLK = SLK (Homo sapiens, UniProt Q9H2G2); settings: 1 µM; binder
TRPM6 = TRPM6 (Homo sapiens, UniProt Q9BX84); settings: 1 µM; binder
GRK2 = GRK2 (Homo sapiens, UniProt P25098); settings: 1 µM; binder
MYLK4 = MYLK4 (Homo sapiens, UniProt Q86YV6); settings: 1 µM; binder
FGFR4 = FGFR4 (Homo sapiens, UniProt P22455); settings: 1 µM; binder
Chain of FGFR4 (P22455 whole entry): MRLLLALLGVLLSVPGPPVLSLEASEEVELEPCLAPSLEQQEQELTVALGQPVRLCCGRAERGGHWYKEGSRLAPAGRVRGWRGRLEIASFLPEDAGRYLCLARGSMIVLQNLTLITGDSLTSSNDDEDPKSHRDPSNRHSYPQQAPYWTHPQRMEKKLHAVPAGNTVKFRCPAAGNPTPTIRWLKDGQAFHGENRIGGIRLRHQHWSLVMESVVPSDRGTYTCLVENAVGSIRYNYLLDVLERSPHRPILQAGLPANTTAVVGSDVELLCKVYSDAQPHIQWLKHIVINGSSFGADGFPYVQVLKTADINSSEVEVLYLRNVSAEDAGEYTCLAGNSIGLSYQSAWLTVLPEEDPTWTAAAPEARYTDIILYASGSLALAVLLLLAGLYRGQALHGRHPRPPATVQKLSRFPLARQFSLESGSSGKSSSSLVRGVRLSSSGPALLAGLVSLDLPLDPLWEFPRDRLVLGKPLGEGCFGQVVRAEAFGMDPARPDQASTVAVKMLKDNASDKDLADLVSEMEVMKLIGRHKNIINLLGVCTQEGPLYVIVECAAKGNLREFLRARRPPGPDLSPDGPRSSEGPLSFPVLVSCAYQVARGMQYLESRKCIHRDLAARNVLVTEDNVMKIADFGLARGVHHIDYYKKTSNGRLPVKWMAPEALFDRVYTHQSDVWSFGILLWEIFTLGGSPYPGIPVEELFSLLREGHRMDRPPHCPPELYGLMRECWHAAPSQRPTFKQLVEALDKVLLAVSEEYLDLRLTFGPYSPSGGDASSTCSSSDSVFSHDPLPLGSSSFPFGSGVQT

EPHA4 = EPHA4 (Homo sapiens, UniProt P54764); settings: 1 µM; binder
GRK1 = GRK1 (Homo sapiens, UniProt Q15835); settings: 1 µM; binder
CAMK2B = CAMK2B (Homo sapiens, UniProt Q13554); settings: 1 µM; binder
PAK3 = PAK3 (Homo sapiens, UniProt O75914); settings: 1 µM; binder
Chain of PAK3 (O75914 whole entry): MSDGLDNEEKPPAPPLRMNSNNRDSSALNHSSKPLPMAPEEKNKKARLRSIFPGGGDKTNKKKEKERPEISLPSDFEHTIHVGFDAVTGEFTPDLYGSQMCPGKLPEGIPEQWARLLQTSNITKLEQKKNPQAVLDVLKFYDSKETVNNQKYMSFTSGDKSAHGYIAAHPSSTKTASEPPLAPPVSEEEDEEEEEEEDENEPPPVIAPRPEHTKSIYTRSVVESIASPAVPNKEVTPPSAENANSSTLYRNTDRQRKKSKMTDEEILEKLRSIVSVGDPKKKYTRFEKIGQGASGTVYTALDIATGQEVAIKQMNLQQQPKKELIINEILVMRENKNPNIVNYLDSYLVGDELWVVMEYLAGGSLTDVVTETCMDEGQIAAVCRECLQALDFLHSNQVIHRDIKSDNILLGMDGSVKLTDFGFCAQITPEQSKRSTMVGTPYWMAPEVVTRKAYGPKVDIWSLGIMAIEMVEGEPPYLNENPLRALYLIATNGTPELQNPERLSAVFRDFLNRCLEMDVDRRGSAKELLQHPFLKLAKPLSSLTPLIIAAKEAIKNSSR

EGFR(S752-I759del) = EGFR(S752-I759del) (Homo sapiens, UniProt P00533, DEL752-759); settings: 1 µM; binder
SRC = SRC (Homo sapiens, UniProt P12931); settings: 1 µM; binder
KIT(D816V) = KIT(D816V) (Homo sapiens, UniProt P10721, D816V); settings: 1 µM; binder
EGFR(E746-A750del) = EGFR(E746-A750del) (Homo sapiens, UniProt P00533, DEL746-750); settings: 1 µM; binder
VPS34 = VPS34 (Homo sapiens, UniProt Q8NEB9); settings: 1 µM; binder
FLT1 = FLT1 (Homo sapiens, UniProt P17948); settings: 1 µM; binder
AKT3 = AKT3 (Homo sapiens, UniProt Q9Y243); settings: 1 µM; binder
Chain of AKT3 (Q9Y243 whole entry): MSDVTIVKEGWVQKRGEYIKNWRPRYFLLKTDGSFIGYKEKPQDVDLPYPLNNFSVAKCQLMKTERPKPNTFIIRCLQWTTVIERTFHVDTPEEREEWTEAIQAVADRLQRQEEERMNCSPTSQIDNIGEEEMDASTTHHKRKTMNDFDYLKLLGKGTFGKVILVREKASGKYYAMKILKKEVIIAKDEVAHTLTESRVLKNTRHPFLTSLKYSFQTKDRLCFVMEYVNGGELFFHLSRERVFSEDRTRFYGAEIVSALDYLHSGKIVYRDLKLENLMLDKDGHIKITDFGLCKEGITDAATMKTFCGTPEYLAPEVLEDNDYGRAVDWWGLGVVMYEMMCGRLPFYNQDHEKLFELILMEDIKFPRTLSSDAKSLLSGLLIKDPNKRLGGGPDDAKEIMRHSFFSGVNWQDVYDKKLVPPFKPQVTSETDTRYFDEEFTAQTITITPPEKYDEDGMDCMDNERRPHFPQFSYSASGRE

TEC = TEC (Homo sapiens, UniProt P42680); settings: 1 µM; binder
Chain of TEC (P42680 whole entry): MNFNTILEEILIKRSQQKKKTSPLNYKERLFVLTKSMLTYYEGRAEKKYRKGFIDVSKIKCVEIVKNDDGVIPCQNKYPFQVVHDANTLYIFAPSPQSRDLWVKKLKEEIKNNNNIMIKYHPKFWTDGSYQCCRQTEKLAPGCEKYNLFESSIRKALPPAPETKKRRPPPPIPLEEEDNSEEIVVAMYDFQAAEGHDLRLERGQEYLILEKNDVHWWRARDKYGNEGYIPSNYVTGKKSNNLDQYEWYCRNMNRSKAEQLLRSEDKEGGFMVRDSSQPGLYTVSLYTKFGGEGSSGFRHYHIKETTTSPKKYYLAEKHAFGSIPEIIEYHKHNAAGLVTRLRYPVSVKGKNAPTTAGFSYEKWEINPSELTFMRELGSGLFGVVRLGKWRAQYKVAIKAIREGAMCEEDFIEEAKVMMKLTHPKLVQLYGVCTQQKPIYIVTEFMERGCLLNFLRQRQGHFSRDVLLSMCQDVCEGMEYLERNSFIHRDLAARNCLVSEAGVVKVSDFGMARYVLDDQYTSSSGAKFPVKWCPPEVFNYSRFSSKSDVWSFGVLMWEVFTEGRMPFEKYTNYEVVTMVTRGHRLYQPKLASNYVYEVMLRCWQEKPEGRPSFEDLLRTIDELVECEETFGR

PAK6 = PAK6 (Homo sapiens, UniProt Q9NQU5); settings: 1 µM; binder
Chain of PAK6 (Q9NQU5 whole entry): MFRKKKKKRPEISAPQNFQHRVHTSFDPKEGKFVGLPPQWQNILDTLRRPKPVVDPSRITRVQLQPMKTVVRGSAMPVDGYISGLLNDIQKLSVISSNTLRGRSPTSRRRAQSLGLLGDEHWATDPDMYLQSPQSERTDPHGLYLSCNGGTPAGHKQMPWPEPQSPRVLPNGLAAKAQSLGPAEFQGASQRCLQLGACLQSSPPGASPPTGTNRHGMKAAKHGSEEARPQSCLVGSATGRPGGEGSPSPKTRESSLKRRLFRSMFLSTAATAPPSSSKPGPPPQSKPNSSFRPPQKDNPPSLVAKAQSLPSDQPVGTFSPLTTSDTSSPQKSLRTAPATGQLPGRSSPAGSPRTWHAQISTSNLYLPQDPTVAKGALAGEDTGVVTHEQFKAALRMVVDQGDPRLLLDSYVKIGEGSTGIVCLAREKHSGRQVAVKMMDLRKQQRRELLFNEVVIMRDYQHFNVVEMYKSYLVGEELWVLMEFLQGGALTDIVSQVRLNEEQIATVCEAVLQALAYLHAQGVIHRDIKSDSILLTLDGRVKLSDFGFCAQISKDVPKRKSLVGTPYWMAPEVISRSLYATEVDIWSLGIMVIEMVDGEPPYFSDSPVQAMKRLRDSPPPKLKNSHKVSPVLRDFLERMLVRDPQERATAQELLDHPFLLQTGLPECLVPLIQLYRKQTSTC

EGFR = EGFR (Homo sapiens, UniProt P00533); settings: 1 µM; binder
CDC2L2 = CDC2L2 (Homo sapiens, UniProt Q9UQ88); settings: 1 µM; binder
PAK7 = PAK7 (Homo sapiens, UniProt Q9P286); settings: 1 µM; binder
Chain of PAK7 (Q9P286 whole entry): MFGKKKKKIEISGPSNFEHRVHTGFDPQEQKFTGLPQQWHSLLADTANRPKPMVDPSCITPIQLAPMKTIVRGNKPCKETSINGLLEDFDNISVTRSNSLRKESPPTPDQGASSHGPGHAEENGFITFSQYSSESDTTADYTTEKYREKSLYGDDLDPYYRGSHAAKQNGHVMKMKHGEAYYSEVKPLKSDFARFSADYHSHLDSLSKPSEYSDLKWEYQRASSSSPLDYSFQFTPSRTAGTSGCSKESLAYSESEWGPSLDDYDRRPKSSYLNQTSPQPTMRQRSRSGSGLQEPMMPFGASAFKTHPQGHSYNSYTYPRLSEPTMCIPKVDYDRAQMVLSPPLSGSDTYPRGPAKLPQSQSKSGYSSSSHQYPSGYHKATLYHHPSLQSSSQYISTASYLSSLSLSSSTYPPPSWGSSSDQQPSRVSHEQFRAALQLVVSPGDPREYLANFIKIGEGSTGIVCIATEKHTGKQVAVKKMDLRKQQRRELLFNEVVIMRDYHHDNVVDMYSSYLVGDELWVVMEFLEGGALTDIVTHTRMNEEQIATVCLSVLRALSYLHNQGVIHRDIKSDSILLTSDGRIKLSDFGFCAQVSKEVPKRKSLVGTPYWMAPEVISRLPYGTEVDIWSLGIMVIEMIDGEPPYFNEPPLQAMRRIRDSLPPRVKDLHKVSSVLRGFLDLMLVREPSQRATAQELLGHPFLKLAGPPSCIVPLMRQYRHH

CDK4 = CDK4 (Homo sapiens, UniProt P11802); settings: 1 µM; binder
Chain of CDK4 (P11802 whole entry): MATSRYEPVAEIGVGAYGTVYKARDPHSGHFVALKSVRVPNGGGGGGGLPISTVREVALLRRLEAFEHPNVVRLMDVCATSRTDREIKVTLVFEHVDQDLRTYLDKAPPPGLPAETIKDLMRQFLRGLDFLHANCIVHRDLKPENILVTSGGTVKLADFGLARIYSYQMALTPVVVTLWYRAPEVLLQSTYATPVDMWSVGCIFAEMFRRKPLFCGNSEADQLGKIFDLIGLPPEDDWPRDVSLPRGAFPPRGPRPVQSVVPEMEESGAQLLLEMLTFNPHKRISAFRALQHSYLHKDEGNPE

CNc1ncc2cc(-c3ccc(-c4cccc(C)n4)cc3Cl)c(=O)n(C[C@H]3OC[C@H](N)CO3)c2n1 [compound 6, G-5555]
Percent Control (AXL): 96% | Percent Control (TIE1): 94% | Percent Control (TSSK3): 84% | Percent Control (CSNK1G2): 83% | Percent Control (NDR1): 70% | Percent Control (p38-beta): 100% | Percent Control (RPS6KA2; Kin.Dom.1 N-terminal): 57% | Percent Control (RPS6KA2; Kin.Dom.2 C-terminal, 1 µM): 92% | Percent Control (ULK1): 85% | Percent Control (SLK): 33% | Percent Control (TRPM6): 100% | Percent Control (GRK2): 100% | Percent Control (MYLK4): 100% | Percent Control (FGFR4): 100% | Percent Control (EPHA4): 100% | Percent Control (GRK1): 100% | Percent Control (CAMK2B): 100% | Percent Control (PAK3): 100% | Percent Control (EGFR(S752-I759del)): 100% | Percent Control (SRC): 100% | Percent Control (KIT(D816V)): 100% | Percent Control (EGFR(E746-A750del)): 100% | Percent Control (VPS34): 100% | Percent Control (FLT1): 100% | Percent Control (AKT3): 48% | Percent Control (TEC): 100% | Percent Control (PAK6): 45% | Percent Control (EGFR): 88% | Percent Control (CDC2L2): 100% | Percent Control (PAK7): 82% | Percent Control (CDK4): 100%
